Calls of active or inactive are those of the source. No cut-off for these calls is given here.
Experiments:
[1] = biological target: T1, Vitamin D3 receptor (Homo sapiens, UniProt P11473); assay: Displacement of [3H]-1alpha,25-dihydroxyvitamin D3 from recombinant human VDR LBD expressed in Escherichia coli BL21 (DE3) pLysS after 16 hrs
T1 sequence (P11473 whole entry): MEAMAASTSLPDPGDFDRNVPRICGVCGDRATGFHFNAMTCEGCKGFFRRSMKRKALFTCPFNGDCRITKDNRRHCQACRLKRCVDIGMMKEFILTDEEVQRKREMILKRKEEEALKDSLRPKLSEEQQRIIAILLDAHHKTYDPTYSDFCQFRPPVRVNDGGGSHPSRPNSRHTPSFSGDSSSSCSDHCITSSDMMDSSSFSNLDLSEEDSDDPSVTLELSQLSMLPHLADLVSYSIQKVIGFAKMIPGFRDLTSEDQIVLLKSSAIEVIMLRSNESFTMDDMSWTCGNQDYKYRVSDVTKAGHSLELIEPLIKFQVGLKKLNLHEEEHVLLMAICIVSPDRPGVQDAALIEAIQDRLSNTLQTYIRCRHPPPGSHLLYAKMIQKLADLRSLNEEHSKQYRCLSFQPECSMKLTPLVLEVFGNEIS

[2] = biological target: T2, Vitamin D3 receptor (Homo sapiens) (UniProt P11473); assay: Agonist activity at human VDR transfected in African green monkey COS7 cells assessed as induction of transcriptional activity at 10^-10 to 10^-5 M after 16 hrs by dual luciferase reporter gene assay; assay type: cell-based; conditions: COS-7
T2 sequence (whole entry): T1 sequence (P11473 whole entry)

IC50 [1]: 0.21 nM | Activity [2]: Active
Compound: C=C1[C@H](O)CC(=C/C=C2\CCC[C@]3(C)[C@@H]([C@H](C)[C@H](CCO)CCCCCC)CC[C@@H]23)C[C@H]1O

From ChEMBL document CHEMBL3627651, “Fine tuning of agonistic/antagonistic activity for vitamin D receptor by 22-alkyl chain length of ligands: 22S-Hexyl compound unexpectedly restored agonistic activity” (Bioorg Med Chem, 2015)
